ChEMBL document CHEMBL1129716, “Indolizidine derivatives as potential substance P antagonists” (Bioorg Med Chem Lett, 1996)

Biological target: Substance-P receptor (Homo sapiens, UniProt P25103)
Assay: Binding affinity was carried out with NK 1 receptors from U-373MG human astrocytoma cell line
Format: cell-based
Settings: u-373mg atcc

Substance-P receptor, sequence (P25103 whole entry): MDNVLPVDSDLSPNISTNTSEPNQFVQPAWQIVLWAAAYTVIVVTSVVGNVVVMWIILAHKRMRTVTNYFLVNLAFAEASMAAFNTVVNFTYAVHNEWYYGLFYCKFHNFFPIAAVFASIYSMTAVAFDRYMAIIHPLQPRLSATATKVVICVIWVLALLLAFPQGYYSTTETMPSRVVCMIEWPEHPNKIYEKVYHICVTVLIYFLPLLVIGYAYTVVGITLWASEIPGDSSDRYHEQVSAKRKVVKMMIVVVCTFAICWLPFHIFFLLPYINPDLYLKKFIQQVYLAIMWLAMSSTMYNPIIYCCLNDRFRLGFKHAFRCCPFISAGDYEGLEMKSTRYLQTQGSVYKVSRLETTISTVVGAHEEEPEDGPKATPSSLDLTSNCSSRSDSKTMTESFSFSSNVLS

C=C1CN2CCC[C@H](NCc3ccccc3OC)[C@@]2(c2ccccc2)C1
Log Ki: < -7

COc1ccccc1CN[C@H]1CCCN2CCC[C@]12c1ccccc1
Log Ki: < -7
